Key:
[1] = Stability of the solid upon drying under vacuum; type: physicochemical; conditions: solids collected by filtration and dried under vacuum
Experimental: (§1) Alternatively, after the oil is formed from the evaporation of the ethanol, acetone is added to the oil at a temperature effective to solubilize the oil, ranging from about 30° C. to about 60° C., such as 45° C., and then the resulting mixture is cooled to room temperature. A non-polar antisolvent, such as n-heptane is added to the solution with stirring to form a slurry comprising N-ethyl-2-(5-fluoro-1H-indol-3-yl)-N-methylethan-1-amine monosuccinate, from which a crystalline solid comprising N-ethyl-2-(5-fluoro-1H-indol-3-yl)-N-methylethan-1-amine monosuccinate is crystallized, for example, by seeding, scratching, or aging. The solids are collected by filtration and dried under vacuum.

[2] = Overnight humidity exposure at 30° C./90% relative humidity; type: physicochemical; conditions: 30° C./90% relative humidity (RH)
Experimental: as §1

With `CCN(C)CCc1c[nH]c2ccc(F)cc12.O=C(O)CCC(=O)O` [N-ethyl-2-(5-fluoro-1H-indol-3-yl)-N-methylethan-1-amine monosuccinate] the stability upon drying [1] was “stable upon drying” and the “behaviour after humidity exposure (deliquescence)” value [2] was “deliquesces”.
